Laboratory results taken from patent US9834571B2, “Compounds for inhibiting cell proliferation in EGFR-driven cancers” (ARIAD Pharmaceuticals, Inc., priority 2012, dated 2017).

How the values were obtained:
[1] = target: human EGFR (native sequence) (Homo sapiens, UniProt P00533); assay: Kinase inhibitory activity against human EGFR (native sequence); format: biochemical; settings: human EGFR native sequence; 10 μM ATP; read-out: IC50 for kinase inhibition, EGFR
How it was run: (§1)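 Each assay used 10 μM ATP. Inhibitors were tested as 10-point curves, highest concentration 3 μM, no replicates.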

EGFR L858R = EGFR L858R (Homo sapiens, UniProt P00533, L858R); assay: Kinase inhibitory activity against EGFR bearing the L858R mutation; format: biochemical; settings: EGFR L858R; 10 μM ATP; read-out: IC50 for kinase inhibition, EGFR L858R
Chain of EGFR L858R (P00533 25-1210 L858R): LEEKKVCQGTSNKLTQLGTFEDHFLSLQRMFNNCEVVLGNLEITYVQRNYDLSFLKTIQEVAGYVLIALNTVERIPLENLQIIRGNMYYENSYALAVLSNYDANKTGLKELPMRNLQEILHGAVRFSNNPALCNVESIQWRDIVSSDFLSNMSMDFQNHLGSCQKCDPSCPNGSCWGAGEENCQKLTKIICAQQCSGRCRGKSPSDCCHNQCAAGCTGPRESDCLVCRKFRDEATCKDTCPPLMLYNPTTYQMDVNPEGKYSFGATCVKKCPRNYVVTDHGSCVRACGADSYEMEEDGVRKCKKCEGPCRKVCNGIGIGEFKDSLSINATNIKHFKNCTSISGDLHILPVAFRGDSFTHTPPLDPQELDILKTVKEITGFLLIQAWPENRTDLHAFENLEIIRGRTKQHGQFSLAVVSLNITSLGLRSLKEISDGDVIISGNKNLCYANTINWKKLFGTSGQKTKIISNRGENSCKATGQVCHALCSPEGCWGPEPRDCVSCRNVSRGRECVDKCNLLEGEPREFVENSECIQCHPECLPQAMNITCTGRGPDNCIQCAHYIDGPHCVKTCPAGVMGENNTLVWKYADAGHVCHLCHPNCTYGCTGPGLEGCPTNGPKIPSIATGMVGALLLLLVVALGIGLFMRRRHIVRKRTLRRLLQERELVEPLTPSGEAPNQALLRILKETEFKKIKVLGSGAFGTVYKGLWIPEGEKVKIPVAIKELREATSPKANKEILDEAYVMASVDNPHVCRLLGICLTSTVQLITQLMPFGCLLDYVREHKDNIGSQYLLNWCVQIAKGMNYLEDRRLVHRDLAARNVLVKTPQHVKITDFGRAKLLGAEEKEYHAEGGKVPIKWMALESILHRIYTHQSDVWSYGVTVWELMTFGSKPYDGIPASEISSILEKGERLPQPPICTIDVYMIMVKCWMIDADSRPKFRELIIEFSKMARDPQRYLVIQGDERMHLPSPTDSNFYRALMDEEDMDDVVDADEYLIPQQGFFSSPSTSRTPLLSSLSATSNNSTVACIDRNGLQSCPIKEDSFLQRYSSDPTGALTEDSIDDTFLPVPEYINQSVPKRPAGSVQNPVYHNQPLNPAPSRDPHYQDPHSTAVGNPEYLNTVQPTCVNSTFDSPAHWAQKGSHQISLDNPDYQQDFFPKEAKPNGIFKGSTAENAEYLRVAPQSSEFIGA
How it was run: as §1

EGFR L858R/T790M = EGFR L858R/T790M (Homo sapiens, UniProt P00533, L858R/T790M); assay: Kinase inhibitory activity against EGFR bearing the L858R/T790M double mutation; format: biochemical; settings: EGFR L858R/T790M double mutation; 10 μM ATP; read-out: IC50 for kinase inhibition, EGFR L858R T790M
Chain of EGFR L858R/T790M (P00533 25-1210 T790M/L858R): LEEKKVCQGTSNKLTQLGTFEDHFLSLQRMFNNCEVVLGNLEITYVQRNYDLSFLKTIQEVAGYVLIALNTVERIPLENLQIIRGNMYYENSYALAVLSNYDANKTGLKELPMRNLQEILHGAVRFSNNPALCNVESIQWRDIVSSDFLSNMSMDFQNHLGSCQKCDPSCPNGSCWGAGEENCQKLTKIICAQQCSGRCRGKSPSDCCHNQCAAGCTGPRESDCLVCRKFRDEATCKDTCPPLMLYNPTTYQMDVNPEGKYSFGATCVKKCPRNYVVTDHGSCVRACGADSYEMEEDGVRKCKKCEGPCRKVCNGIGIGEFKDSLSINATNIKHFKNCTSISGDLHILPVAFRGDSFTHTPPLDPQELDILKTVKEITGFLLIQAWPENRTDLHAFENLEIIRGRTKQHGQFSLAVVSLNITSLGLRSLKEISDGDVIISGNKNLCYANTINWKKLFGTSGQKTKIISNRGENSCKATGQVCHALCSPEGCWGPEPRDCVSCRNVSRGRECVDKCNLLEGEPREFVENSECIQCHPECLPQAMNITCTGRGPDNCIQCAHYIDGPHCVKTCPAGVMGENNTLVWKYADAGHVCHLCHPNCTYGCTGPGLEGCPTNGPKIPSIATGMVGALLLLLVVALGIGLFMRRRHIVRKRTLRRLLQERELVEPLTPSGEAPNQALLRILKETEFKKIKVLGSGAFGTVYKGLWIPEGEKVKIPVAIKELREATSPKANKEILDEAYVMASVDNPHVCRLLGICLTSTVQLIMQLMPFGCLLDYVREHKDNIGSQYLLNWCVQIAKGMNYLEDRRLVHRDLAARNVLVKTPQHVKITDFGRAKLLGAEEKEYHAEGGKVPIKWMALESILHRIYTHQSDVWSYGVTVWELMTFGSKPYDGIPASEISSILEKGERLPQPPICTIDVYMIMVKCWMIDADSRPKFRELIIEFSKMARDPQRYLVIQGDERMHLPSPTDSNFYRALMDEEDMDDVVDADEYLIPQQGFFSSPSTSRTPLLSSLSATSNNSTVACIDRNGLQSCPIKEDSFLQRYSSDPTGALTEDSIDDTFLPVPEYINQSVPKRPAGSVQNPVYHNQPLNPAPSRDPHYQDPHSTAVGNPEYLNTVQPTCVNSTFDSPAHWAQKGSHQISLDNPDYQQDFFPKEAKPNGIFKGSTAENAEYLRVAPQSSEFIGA
How it was run: as §1

[2] = target: T1, BaF3 cells expressing the target EGFR mutations (Homo sapiens, UniProt P00533, T790M, cells depend on it, form not given); assay: Antiproliferative activity (MTT) against BaF3 cells expressing the target EGFR mutations; format: cell-based; settings: BAF3 EGFR DEL T790M PURO POOL cells, read-out: IC50, BAF3 EGFR DEL T790M PURO POOL
T1 construct: IC50, BAF3 EGFR DEL T790M PURO POOL; other: BAF3 EGFR DEL T790M PURO POOL cells, MTT; other: BAF3 EGFR DEL T790M PURO POOL cells; MTT
T1 sequence (P00533 with tags, fused parts or gaps DEL746-750/T790M, form open): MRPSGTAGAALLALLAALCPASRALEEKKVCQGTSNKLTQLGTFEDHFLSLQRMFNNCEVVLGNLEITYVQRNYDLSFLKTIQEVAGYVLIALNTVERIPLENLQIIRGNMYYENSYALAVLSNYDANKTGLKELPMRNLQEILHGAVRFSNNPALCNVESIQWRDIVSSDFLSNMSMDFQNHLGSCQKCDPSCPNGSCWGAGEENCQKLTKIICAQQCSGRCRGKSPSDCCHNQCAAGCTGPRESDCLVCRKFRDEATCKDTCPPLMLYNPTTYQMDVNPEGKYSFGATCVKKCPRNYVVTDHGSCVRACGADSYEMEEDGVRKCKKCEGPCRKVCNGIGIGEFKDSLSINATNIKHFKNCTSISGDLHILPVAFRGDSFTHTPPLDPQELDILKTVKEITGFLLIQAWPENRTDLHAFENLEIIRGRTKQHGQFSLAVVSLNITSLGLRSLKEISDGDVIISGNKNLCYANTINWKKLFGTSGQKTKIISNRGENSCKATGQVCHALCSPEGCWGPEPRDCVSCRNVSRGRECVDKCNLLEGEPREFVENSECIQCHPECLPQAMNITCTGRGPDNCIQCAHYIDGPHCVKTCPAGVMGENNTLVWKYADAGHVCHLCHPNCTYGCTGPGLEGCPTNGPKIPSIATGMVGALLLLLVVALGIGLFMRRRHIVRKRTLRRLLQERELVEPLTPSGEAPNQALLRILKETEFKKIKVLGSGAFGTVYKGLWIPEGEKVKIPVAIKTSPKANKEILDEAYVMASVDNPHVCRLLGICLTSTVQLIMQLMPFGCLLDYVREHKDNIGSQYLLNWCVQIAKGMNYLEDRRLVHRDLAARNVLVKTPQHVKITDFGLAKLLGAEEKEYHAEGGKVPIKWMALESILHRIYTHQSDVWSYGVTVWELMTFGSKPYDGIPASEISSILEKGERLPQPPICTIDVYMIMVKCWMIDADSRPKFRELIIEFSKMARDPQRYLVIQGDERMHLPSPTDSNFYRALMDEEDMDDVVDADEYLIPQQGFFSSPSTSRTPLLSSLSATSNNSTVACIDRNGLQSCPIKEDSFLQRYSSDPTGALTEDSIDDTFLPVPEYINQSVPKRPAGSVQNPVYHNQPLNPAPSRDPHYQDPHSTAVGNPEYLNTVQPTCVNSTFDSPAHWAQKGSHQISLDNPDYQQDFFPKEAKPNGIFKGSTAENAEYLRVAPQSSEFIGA
How it was run: (§2)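 Antiproliferative effect was measured by MTT in BaF3 cells engineered to express mutant EGFR, with wildtype-EGFR BaF3 cells as the control line.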

[3] = target: T2, BaF3 cells expressing the target EGFR mutations (Homo sapiens, UniProt P00533, T790M/L858R, cells depend on it); assay: as above; format: cell-based; settings: BAF3 EGFR L858R-T790M PURO POOL cells, read-out: IC50, BAF3 EGFR L858R-T790M PURO POOL
T2 construct: IC50, BAF3 EGFR L858R-T790M PURO POOL; other: BAF3 EGFR L858R-T790M PURO POOL cells, MTT; IC50, BAF3 EGFR L858R-T790M PURO POOL; other: BAF3 EGFR L858R-T790M PURO POOL cells; MTT
T2 sequence (P00533 whole entry T790M/L858R): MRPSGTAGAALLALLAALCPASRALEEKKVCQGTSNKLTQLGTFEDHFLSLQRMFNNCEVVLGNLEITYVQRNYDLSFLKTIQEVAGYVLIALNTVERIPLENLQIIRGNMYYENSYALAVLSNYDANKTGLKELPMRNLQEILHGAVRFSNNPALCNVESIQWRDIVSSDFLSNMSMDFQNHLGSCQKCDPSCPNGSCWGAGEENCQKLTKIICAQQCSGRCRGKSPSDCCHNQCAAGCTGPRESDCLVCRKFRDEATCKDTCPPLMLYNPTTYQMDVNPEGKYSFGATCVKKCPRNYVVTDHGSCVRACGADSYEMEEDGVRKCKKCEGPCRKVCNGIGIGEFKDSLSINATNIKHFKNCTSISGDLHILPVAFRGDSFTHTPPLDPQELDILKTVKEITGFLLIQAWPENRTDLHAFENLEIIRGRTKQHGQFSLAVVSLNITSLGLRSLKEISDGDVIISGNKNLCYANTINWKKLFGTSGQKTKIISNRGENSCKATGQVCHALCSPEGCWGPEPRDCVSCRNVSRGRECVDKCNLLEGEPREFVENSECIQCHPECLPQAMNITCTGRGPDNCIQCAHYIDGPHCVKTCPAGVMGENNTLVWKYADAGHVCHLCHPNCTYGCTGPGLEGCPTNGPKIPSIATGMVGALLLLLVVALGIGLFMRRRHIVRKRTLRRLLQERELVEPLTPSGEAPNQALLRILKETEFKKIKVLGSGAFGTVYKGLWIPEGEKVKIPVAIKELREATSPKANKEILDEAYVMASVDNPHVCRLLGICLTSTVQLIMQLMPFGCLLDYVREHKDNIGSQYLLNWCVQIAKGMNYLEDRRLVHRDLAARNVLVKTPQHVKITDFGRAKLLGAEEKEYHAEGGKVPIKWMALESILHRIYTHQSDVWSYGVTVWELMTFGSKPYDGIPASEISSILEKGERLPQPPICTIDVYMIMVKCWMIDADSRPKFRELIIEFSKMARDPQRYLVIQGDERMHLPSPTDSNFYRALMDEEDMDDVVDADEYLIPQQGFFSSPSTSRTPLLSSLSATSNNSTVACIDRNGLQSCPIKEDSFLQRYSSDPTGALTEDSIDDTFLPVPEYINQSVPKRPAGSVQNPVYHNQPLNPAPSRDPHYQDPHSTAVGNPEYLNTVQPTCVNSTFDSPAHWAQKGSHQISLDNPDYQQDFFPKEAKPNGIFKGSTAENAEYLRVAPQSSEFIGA
How it was run: as §2

[4] = system: BaF3 cells expressing wildtype EGFR; assay: Antiproliferative activity (MTT) against control BaF3 cells expressing wildtype EGFR; format: cell-based; settings: Mus musculus, BAF3 PARENTAL cells (control)
How it was run: as §2

COc1ccc(NC(=O)C#CCN(C)C)cc1Nc1ncc(Cl)c(Nc2ccccc2P(C)(C)=O)n1 [Example 81, N-(3-((5-chloro-4-((2-(dimethylphosphoryl)phenyl)amino)pyrimidin-2-yl)amino)-4-methoxyphenyl)-4-(dimethylamino)but-2-ynamide]
IC50 [1]: < 50 nM
IC50 (EGFR L858R): < 50 nM
IC50 (EGFR L858R/T790M): < 50 nM
GI50 [2]: < 50 nM
GI50 [3]: < 50 nM
IC50 [4]: ≥ 250 nM

C=C(C(=O)Nc1ccc(OC)c(Nc2ncc(Cl)c(Nc3ccccc3P(C)(C)=O)n2)c1)C(F)(F)F [Example 82, N-(3-((5-chloro-4-((2-(dimethylphosphoryl)phenyl)amino)pyrimidin-2-yl)amino)-4-methoxyphenyl)-2-(trifluoromethyl)acrylamide]
IC50 [1]: < 50 nM
IC50 (EGFR L858R): < 50 nM
IC50 (EGFR L858R/T790M): < 50 nM
GI50 [2]: ≥ 250 nM
GI50 [3]: ≥ 250 nM
IC50 [4]: ≥ 250 nM

COc1cc(P(C)(C)=O)ccc1Nc1ncc(Cl)c(Oc2cccc(NC(=O)C#CCN(C)C)c2)n1 [Example 83, N-(3-((5-chloro-2-((4-(dimethylphosphoryl)-2-methoxyphenyl)amino)pyrimidin-4-yl)oxy)phenyl)-4-(dimethylamino)but-2-ynamide]
IC50 [1]: < 50 nM
IC50 (EGFR L858R): < 50 nM
IC50 (EGFR L858R/T790M): < 50 nM
GI50 [2]: 101 to 250 nM
GI50 [3]: ≥ 250 nM
IC50 [4]: ≥ 250 nM

COc1ccc(NC(=O)C2=CCCN(C)C2)cc1Nc1ncc(Cl)c(Nc2ccccc2P(C)(C)=O)n1 [Example 84, N-(3-((5-chloro-4-((2-(dimethylphosphoryl)phenyl)amino)pyrimidin-2-yl)amino)-4-methoxyphenyl)-1-methyl-1,2,5,6-tetrahydropyridine-3-carboxamide]
IC50 [1]: ≥ 250 nM
IC50 (EGFR L858R): < 50 nM
IC50 (EGFR L858R/T790M): < 50 nM
GI50 [2]: ≥ 250 nM
GI50 [3]: ≥ 250 nM
IC50 [4]: ≥ 250 nM

COc1cc(F)c(NC(=O)/C=C/Cl)cc1Nc1ncc(Cl)c(Nc2ccccc2P(C)(C)=O)n1 [Example 85, (E)-3-chloro-N-(5-((5-chloro-4-((2-(dimethylphosphoryl)phenyl)amino)pyrimidin-2-yl)amino)-2-fluoro-4-methoxyphenyl)acrylamide]
IC50 [1]: < 50 nM
IC50 (EGFR L858R): < 50 nM
IC50 (EGFR L858R/T790M): < 50 nM
GI50 [2]: < 50 nM
GI50 [3]: < 50 nM
IC50 [4]: ≥ 250 nM

C=CC(=O)Nc1ccc(OC)c(Nc2ncc(Cl)c(Nc3ccc(OCCOC)cc3P(C)(C)=O)n2)c1 [Example 86, N-(3-((5-chloro-4-((2-(dimethylphosphoryl)-4-(2-methoxyethoxy)phenyl)amino)pyrimidin-2-yl)amino)-4-methoxyphenyl)acrylamide]
IC50 [1]: 50 to 100 nM
IC50 (EGFR L858R): < 50 nM
IC50 (EGFR L858R/T790M): < 50 nM
GI50 [2]: < 50 nM
GI50 [3]: 50 to 100 nM
IC50 [4]: ≥ 250 nM

COc1cc(F)c(NC(=O)C#CCN(C)C)cc1Nc1ncc(Cl)c(Nc2ccccc2P(C)(C)=O)n1 [Example 87, N-(5-((5-chloro-4-((2-(dimethylphosphoryl)phenyl)amino)pyrimidin-2-yl)amino)-2-fluoro-4-methoxyphenyl)-4-(dimethylamino)but-2-ynamide]
IC50 [1]: < 50 nM
IC50 (EGFR L858R): < 50 nM
IC50 (EGFR L858R/T790M): < 50 nM
GI50 [2]: < 50 nM
GI50 [3]: < 50 nM
IC50 [4]: 101 to 250 nM

COc1cc(F)c(NC(=O)C#CCCN2CCCCC2)cc1Nc1ncc(Cl)c(Nc2ccccc2P(C)(C)=O)n1 [Example 88, N-(5-((5-chloro-4-((2-(dimethylphosphoryl)phenyl)amino)pyrimidin-2-yl)amino)-2-fluoro-4-methoxyphenyl)-5-(piperidin-1-yl)pent-2-ynamide]
IC50 [1]: < 50 nM
IC50 (EGFR L858R): < 50 nM
IC50 (EGFR L858R/T790M): < 50 nM
GI50 [2]: < 50 nM
GI50 [3]: < 50 nM
IC50 [4]: ≥ 250 nM

COc1cc(F)c(NC(=O)C#CCN2CCCC2)cc1Nc1ncc(Cl)c(Nc2ccccc2P(C)(C)=O)n1 [Example 89, N-(5-((5-chloro-4-((2-(dimethylphosphoryl)phenyl)amino)pyrimidin-2-yl)amino)-2-fluoro-4-methoxyphenyl)-4-(pyrrolidin-1-yl)but-2-ynamide]
IC50 [1]: < 50 nM
IC50 (EGFR L858R): < 50 nM
IC50 (EGFR L858R/T790M): < 50 nM
GI50 [2]: < 50 nM
GI50 [3]: < 50 nM
IC50 [4]: ≥ 250 nM

COc1cc(F)c(NC(=O)C#CC(C)(C)N2CCCC2)cc1Nc1ncc(Cl)c(Nc2ccccc2P(C)(C)=O)n1 [Example 90, N-(5-((5-chloro-4-((2-(dimethylphosphoryl)phenyl)amino)pyrimidin-2-yl)amino)-2-fluoro-4-methoxyphenyl)-4-methyl-4-(pyrrolidin-1-yl)pent-2-ynamide]
IC50 [1]: < 50 nM
IC50 (EGFR L858R): < 50 nM
IC50 (EGFR L858R/T790M): < 50 nM
GI50 [2]: < 50 nM
GI50 [3]: < 50 nM
IC50 [4]: ≥ 250 nM

COc1ccc(NC(=O)C#CC(C)(C)N2CCCC2)cc1Nc1ncc(Cl)c(Nc2ccccc2P(C)(C)=O)n1 [Example 91, N-(3-((5-chloro-4-((2-(dimethylphosphoryl)phenyl)amino)pyrimidin-2-yl)amino)-4-methoxyphenyl)-4-methyl-4-(pyrrolidin-1-yl)pent-2-ynamide]
IC50 [1]: < 50 nM
IC50 (EGFR L858R): < 50 nM
IC50 (EGFR L858R/T790M): < 50 nM
GI50 [2]: < 50 nM
GI50 [3]: < 50 nM
IC50 [4]: ≥ 250 nM

COc1ccc(NC(=O)/C=C/CN2CCCCC2)cc1Nc1ncc(Cl)c(Nc2ccccc2P(C)(C)=O)n1 [Example 92, (E)—N-(3-((5-chloro-4-((2-(dimethylphosphoryl)phenyl)amino)pyrimidin-2-yl)amino)-4-methoxyphenyl)-4-(piperidin-1-yl)but-2-enamide]
IC50 [1]: < 50 nM
IC50 (EGFR L858R): < 50 nM
IC50 (EGFR L858R/T790M): < 50 nM
GI50 [2]: < 50 nM
GI50 [3]: < 50 nM
IC50 [4]: ≥ 250 nM

COc1ccc(NC(=O)C#Cc2ccccc2)cc1Nc1ncc(Cl)c(Nc2ccccc2P(C)(C)=O)n1 [Example 93, N-(3-((5-chloro-4-((2-(dimethylphosphoryl)phenyl)amino)pyrimidin-2-yl)amino)-4-methoxyphenyl)-3-phenylpropiolamide]
IC50 [1]: ≥ 250 nM
IC50 (EGFR L858R): < 50 nM
IC50 (EGFR L858R/T790M): < 50 nM
GI50 [2]: < 50 nM
GI50 [3]: < 50 nM
IC50 [4]: ≥ 250 nM

COc1ccc(NC(=O)/C=C/C2(N)CC2)cc1Nc1ncc(Cl)c(Nc2ccccc2P(C)(C)=O)n1 [Example 94, (E)-3-(1-aminocyclopropyl)-N-(3-((5-chloro-4-((2-(dimethylphosphoryl)phenyl)amino)pyrimidin-2-yl)amino)-4-methoxyphenyl)acrylamide]
IC50 [1]: 101 to 250 nM
IC50 (EGFR L858R): < 50 nM
IC50 (EGFR L858R/T790M): < 50 nM
GI50 [2]: ≥ 250 nM
GI50 [3]: ≥ 250 nM
IC50 [4]: ≥ 250 nM

COc1ccc(NC(=O)/C=C/CN2CCCC2)cc1Nc1ncc(Cl)c(Nc2ccccc2P(C)(C)=O)n1 [Example 95, (E)—N-(3-((5-chloro-4-((2-(dimethylphosphoryl)phenyl)amino)pyrimidin-2-yl)amino)-4-methoxyphenyl)-4-(pyrrolidin-1-yl)but-2-enamide]
IC50 [1]: ≥ 250 nM
IC50 (EGFR L858R): < 50 nM
IC50 (EGFR L858R/T790M): < 50 nM
GI50 [2]: 50 to 100 nM
GI50 [3]: ≥ 250 nM
IC50 [4]: ≥ 250 nM

C=CC(=O)Nc1cc(Nc2ncc(Cl)c(Nc3ccccc3P(C)(C)=O)n2)c(OC)cc1C#CCN(CC)CC [Example 96, N-(5-((5-chloro-4-((2-(dimethylphosphoryl)phenyl)amino)pyrimidin-2-yl)amino)-2-(3-(diethylamino)prop-1-yn-1-yl)-4-methoxyphenyl)acrylamide]
IC50 [1]: ≥ 250 nM
IC50 (EGFR L858R): < 50 nM
IC50 (EGFR L858R/T790M): < 50 nM
GI50 [2]: < 50 nM
GI50 [3]: < 50 nM
IC50 [4]: ≥ 250 nM

COCC#CC(=O)Nc1ccc(OC)c(Nc2ncc(Cl)c(Nc3ccccc3P(C)(C)=O)n2)c1 [Example 97, N-(3-((5-chloro-4-((2-(dimethylphosphoryl)phenyl)amino)pyrimidin-2-yl)amino)-4-methoxyphenyl)-4-methoxybut-2-ynamide]
IC50 [1]: < 50 nM
IC50 (EGFR L858R): < 50 nM
IC50 (EGFR L858R/T790M): < 50 nM
GI50 [2]: < 50 nM
GI50 [3]: < 50 nM
IC50 [4]: ≥ 250 nM

C=CC(=O)Nc1cc(Nc2ncc(Cl)c(Nc3ccc(OCCN4CCCC4)cc3P(C)(C)=O)n2)c(OC)cc1F [Example 98, N-(5-((5-chloro-4-((2-(dimethylphosphoryl)-4-(2-(pyrrolidin-1-yl)ethoxy)phenyl)amino)pyrimidin-2-yl)amino)-2-fluoro-4-methoxyphenyl)acrylamide]
IC50 [1]: < 50 nM
IC50 (EGFR L858R): < 50 nM
IC50 (EGFR L858R/T790M): < 50 nM
GI50 [2]: < 50 nM
GI50 [3]: < 50 nM
IC50 [4]: ≥ 250 nM
